According to PMC6333900, “Discovery of peptide ligands targeting a specific ubiquitin-like domain–binding site in the deubiquitinase USP11” (The Journal of Biological Chemistry, 2018):
No end group written: not given here.

What follows are substances tested on USP11_DU^L208F/S242R (assay: Isothermal titration calorimetry, USP11_DU double mutant). Conditions: 30 μM protein in PBS, peptide 300 or 600 μM, 25 °C, pocket-deficient double mutant, repeated at least twice.
Type: binding, human
Method: (§1) ITC data were measured on a MicroCal VP-ITC or a PEAQ ITC instrument to obtain the binding parameters for peptide ligand–USP11_DU interactions. The sample cell contained 30 μM protein in PBS buffer. Each peptide (at a concentration of 300 or 600 μM) was titrated into the sample cell in 8-μl (VP-ITC) or 2-μl (PEAK ITC) injections at a temperature of 25 °C. Spacing was typically 180 s, and a stirring speed of 300 rpm was used. The data were analyzed using NITPIC ([52]), SEDPHAT ([53]), and GUSSI software. ITC experiments were repeated at least twice independently apart from the USP15_DU, USP4_DU, and the FL-USP11 titrations with FYLIR peptide, which were conducted once.

**Q.** Which “binding by ITC” value does the source give for “AEGEFLRLLNFTKP [peptide harboring motif 2 (LXLL)]” here?
**A.** abolished

These substances were tested against T1, full-length USP11 (FL-USP11) (Homo sapiens, UniProt P51784) (assay: Isothermal titration calorimetry, full-length USP11). Conditions: ITC, 30 μM protein in PBS, 25 °C, one site binding model; n=1; read-out: dissociation constant.
T1 construct: FYLIR peptide (AEGEFYKLKIRTPR) titrated into full-length USP11 (FL-USP11); His tag (inferred from nickel-chelate purification and the pColdI vector); made in house; host or cells: E. coli BL21-CodonPlus (pColdI), grown 72 h at 10 °C
T1 sequence (P51784 44-963 limits assumed): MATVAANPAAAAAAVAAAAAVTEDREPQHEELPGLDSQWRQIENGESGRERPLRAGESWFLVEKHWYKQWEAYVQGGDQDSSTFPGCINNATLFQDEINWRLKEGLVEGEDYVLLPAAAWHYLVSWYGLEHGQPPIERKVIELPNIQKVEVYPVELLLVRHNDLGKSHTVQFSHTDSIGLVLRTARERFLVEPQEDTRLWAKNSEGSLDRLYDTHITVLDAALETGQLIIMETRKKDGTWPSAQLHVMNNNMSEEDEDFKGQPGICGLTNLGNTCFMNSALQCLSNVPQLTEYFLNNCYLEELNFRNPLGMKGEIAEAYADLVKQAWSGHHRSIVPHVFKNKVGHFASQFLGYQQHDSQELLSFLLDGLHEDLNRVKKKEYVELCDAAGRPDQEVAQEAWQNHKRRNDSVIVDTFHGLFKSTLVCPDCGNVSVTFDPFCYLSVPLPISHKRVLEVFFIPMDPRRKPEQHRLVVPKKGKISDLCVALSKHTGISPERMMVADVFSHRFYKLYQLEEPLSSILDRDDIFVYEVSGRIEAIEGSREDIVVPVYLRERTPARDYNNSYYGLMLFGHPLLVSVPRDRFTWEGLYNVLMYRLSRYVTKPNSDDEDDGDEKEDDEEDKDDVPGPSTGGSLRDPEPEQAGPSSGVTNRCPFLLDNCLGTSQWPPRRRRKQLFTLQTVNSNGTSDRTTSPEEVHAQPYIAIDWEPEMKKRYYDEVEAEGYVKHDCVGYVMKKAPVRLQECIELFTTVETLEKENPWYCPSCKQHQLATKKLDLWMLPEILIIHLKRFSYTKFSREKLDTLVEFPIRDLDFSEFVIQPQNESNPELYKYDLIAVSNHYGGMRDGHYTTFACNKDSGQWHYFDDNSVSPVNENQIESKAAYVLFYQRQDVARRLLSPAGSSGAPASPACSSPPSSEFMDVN
Method: as §1

**Q.** AEGEFYKLKIRTPR-NH2 [AEGEFYKLKIRTPR] was tested. Which Kd did it give?
**A.** ~12.5 µM

Each substance was assayed on USP11_DU (USP11 N-terminal DUSP–UBL domains) (assay: Next-generation phage display enrichment (two-proportion Z test, round 3 of panning)). Conditions: enrichment on USP11_DU vs unrelated His-tagged control protein (flagellin fragment), after three rounds of panning, gpVIII phage-displayed nonapeptide.
Type: binding, human
Excerpt: An NGPD approach was applied to the identification of USP11 ligands as schematically depicted in Fig. 1B. A randomized linear peptide library fused to the gpVIII protein was used to isolate peptides that interact with the USP11 N-terminal DU domains (DUSP and UBL domains in tandem; USP11_DU; Fig. 1A). After three biopanning rounds, phage ssDNA was extracted and purified, and peptide sequences were amplified and deep-sequenced. […] A graphical representation of the residue frequency within the motifs as computed by the Multiple EM for Motif Elicitation (MEME) algorithm ([33]) is shown in Fig. 1C. The thermodynamic binding parameters of synthetic peptides representative of both motifs, including the N-terminal phage protein sequence (AEGEF), AEGEFYKLKIRTPQ (referred to as FYLIR peptide) and AEGEFLELLKASRW (referred to as LXLL peptide), were determined by isothermal titration calorimetry (ITC). Peptides harboring either motif bound USP11_DU with dissociation constants of about 10 μM (8.86 ± 1.13 μM for AEGEFYKLKIRTPQ and 6.92 ± 2.25 μM for AEGEFLELLKASRW; Fig. 1D).
The peptide phage display library used for biopanning experiments (kindly provided by Professor Franco Felici, University of Molise, Italy; designated PC89VIII) is based on the PC89 phagemid vector ([50]) with a nonapeptide inserted at the N terminus of the phage major coat protein pVIII and a reported diversity of ∼10^7. The library was transformed into Escherichia coli TG1 supE thi-1 Δ(lac-proAB) Δ(mcrB-hsdSM)5(rK-mK) [F′traD36 proAB lacIqZΔM15], which was the strain used for all manipulations and phage rescue. Libraries were grown to mid-log phase (OD600 ∼0.6), superinfected with M13KO7 helper phage (Pharmacia LKB), and incubated overnight at 30 °C (250 rpm) to produce phage particles. Phage was harvested, and PEG was precipitated only for the first panning round. For all subsequent selection rounds (three in total), supernatant phage was used directly. Biopanning was carried out once, as described previously ([51]), and proteins were immobilized on cobalt beads (Dynabeads) (solution phase panning). A total of 100 μg of USP11_DU was immobilized for each round. In parallel, the phage isolated at each round against USP11_DU was also bound against an unrelated His-tagged control protein under the same conditions. This control protein was a fragment of flagellin, a virulence factor from E. coli O157:H7, amino acid residues 164–495, and the protein was used as it is unrelated to the target proteins and carried a C-terminal His tag. Bound phage were washed 10–20 times with PBS (10 mM phosphate buffer, pH 7.2–7.4, with 150 mM NaCl) plus 0.1% (v/v) Tween (PBST) and then PBS. Bound phage were eluted from the beads with 100 mM triethylamine and neutralized in 1 M Tris, pH 7.4. Half of the eluted phage was used for infection of TG1 cells, which were plated and used to make glycerol stocks.
The ssDNA of eluted phage for round 3 of selection against the USP11_DU target and the control protein was extracted and purified using the QIAprep Spin M13 kit. Subsequently, phage ssDNA was precipitated with ethanol and stored as a dry pellet to be used as a PCR template. For the amplification of the unknown peptide sequences, a two-step PCR strategy was followed, as described previously ([32]). The strategy produced an amplicon of ∼330 bp, and each sample contained a unique barcoded sequence. Each sample's DNA concentration was determined by the Agilent 2100 Bioanalyzer using the DNA 1000 kit. Based on the concentration readings for the peak of interest, samples were pooled in equal amounts, purified by the Agencourt AMPure XP kit, and run on a 2% (w/v) agarose gel. The band of ∼330 bp was excised from the gel and purified using the NucleoSpin Gel and PCR Clean-up kit. Finally, the concentration and size of the pooled DNA were measured on a Bioanalyzer. NGPD was carried out once for each round of panning. […]

**Q.** For CKLKIRTPQ, which Z score is on record?
**A.** 5.6

**Q.** For HKLKIRTPQ, which Z score is on record?
**A.** 5.5

**Q.** How did the Z score turn out when LALIKRQPL was run?
**A.** 18.1

**Q.** Which Z score does the source give for LALLMRQRP here?
**A.** 19.0

**Q.** Which Z score does the source give for LAMLTRGRP here?
**A.** 3.0

**Q.** With LELARRSPV as the substance, how does the Z score read?
**A.** 4.1

**Q.** For LELLEASRW, which Z score is on record?
**A.** 5.0

**Q.** Which Z score does the source give for LELLKALRW here?
**A.** 3.0

**Q.** For LELLKAPRW, which Z score is on record?
**A.** 3.6

**Q.** LELLKASRR was tested. Which Z score did it give?
**A.** 4.8

**Q.** How did the Z score turn out when LELLKASRW was run?
**A.** 108.7

**Q.** Which Z score does the source give for LELLKVSRW here?
**A.** 3.0

**Q.** Which Z score does the source give for LELLRASRW here?
**A.** 4.6

**Q.** For LELPKASRW, which Z score is on record?
**A.** 4.5

**Q.** Which Z score does the source give for LELVCRSPV here?
**A.** 2.8

**Q.** LELVHRSPV was tested. Which Z score did it give?
**A.** 4.1

**Q.** How did the Z score turn out when LELVRCSPV was run?
**A.** 3.2

**Q.** LELVRHSPV was tested. Which Z score did it give?
**A.** 3.0

**Q.** For LELVRRSPA, which Z score is on record?
**A.** 3.7

**Q.** With LELVRRSPV as the substance, how does the Z score read?
**A.** 89.0

**Q.** LELVRRSSV was tested. Which Z score did it give?
**A.** 3.0

**Q.** How did the Z score turn out when LEPVRRSPV was run?
**A.** 4.1

**Q.** Which Z score does the source give for LESLKASRW here?
**A.** 4.9

**Q.** Which Z score does the source give for LGLLKASRW here?
**A.** 4.4

**Q.** With LQLLALSRA as the substance, how does the Z score read?
**A.** 3.6

**Q.** With LQLLALSRT as the substance, how does the Z score read?
**A.** 70.9

**Q.** How did the Z score turn out when LQLLAPSRT was run?
**A.** 3.0

**Q.** How did the Z score turn out when LQLPALSRT was run?
**A.** 4.1

**Q.** Which Z score does the source give for LRLLALSRT here?
**A.** 4.4

**Q.** With NKLKIRTPQ as the substance, how does the Z score read?
**A.** 2.8

**Q.** With PELLKASRW as the substance, how does the Z score read?
**A.** 3.6

**Q.** For PQLLALSRT, which Z score is on record?
**A.** 3.9

**Q.** How did the Z score turn out when YELKIRTPQ was run?
**A.** 4.6

**Q.** How did the Z score turn out when YKLEIRTPQ was run?
**A.** 5.6

**Q.** With YKLKIQTPQ as the substance, how does the Z score read?
**A.** 4.0

**Q.** For YKLKIRAPQ, which Z score is on record?
**A.** 7.9

**Q.** YKLKIRIPQ was tested. Which Z score did it give?
**A.** 4.4

**Q.** With YKLKIRTLQ as the substance, how does the Z score read?
**A.** 3.7

**Q.** Which Z score does the source give for YKLKIRTPL here?
**A.** 3.2

**Q.** YKLKIRTPQ was tested. Which Z score did it give?
**A.** 168.4

**Q.** How did the Z score turn out when YKLKIRTPR was run?
**A.** 7.1

**Q.** YKLKIRTSQ was tested. Which Z score did it give?
**A.** 3.6

**Q.** Which Z score does the source give for YKLKTRTPQ here?
**A.** 4.5

**Q.** For YKLKVRTPQ, which Z score is on record?
**A.** 5.7

**Q.** YKLRIRTPQ was tested. Which Z score did it give?
**A.** 5.8

**Q.** Which Z score does the source give for YKPKIRTPQ here?
**A.** 6.6

**Q.** With YRLKIRTPQ as the substance, how does the Z score read?
**A.** 5.5

Each substance was assayed on Panc1 cells (assay: Cell viability (Presto Blue assay), Panc1). Conditions: Panc1, up to 10 μM, 24 h, Presto Blue, n=4 biological repeats (Fig. S6).
Type: cell-based, human
Method: Cells were plated in 96-well plates (2.5 × 10^4 cells/well) and treated with GET-FYLIR (0–50 μM) for 24 h. Cells were also treated with GET-Scrambled as a control. After treatment, cells were washed with PBS and then incubated for 15 min at 37 °C with a 100-μl Presto Blue solution (10% Presto Blue, Invitrogen in Hanks' balanced salt solution, Sigma). Change in the fluorescence was measured using a plate reader with the excitation/emission wavelengths set at 560/590 nm (Infinite® 200 PRO, TECAN), with untreated cells used as a control. All data sets were combined for the statistical analysis. A Sidak's multiple comparisons test was applied. N refers to the number of biological replicates.

**Q.** APKFEIRRGTYKLE [GET-Scrambled] was tested. Which cell viability did it give?
**A.** no significant effect

These substances were tested on Panc1 cells (assay: Cell uptake (flow cytometry), Panc1). Conditions: 1 μM and 5 μM, 1 or 24 h, flow cytometry.
Type: cell-based, human
Method: Cells treated with GET-FYLIR or GET-Scrambled were analyzed on an Astrios cell sorter using a 488-nm […] laser (40,000 cells; gated on live cells by forward/side scatter). Gmean was used as the average cell intensity. All data sets were combined for the statistical analysis. A Sidak's multiple comparisons test was applied. N refers to the number of biological replicates.

**Q.** For APKFEIRRGTYKLE [GET-Scrambled], which “uptake profile, NIH3T3 versus Panc1” value is on record?
**A.** no difference in the uptake profile between NIH3T3 and Panc1 cells

Same assay, conditions: NIH3T3 and Panc1, 1 and 5 μM, flow cytometry

**Q.** How did the cellular delivery turn out when APKFEIRRGTYKLE [GET-Scrambled] was run?
**A.** efficiently delivered
